Legend:
Carboplatin = compound: C1CC(C1)(C(=O)[O-])C(=O)[O-].N.N.[Pt+2] [Carboplatin]; conditions: max 10 µM
Summary of the method: (§1)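 Cancer cell lines were seeded into 1536-well plates in 7.5 μl medium (DMEM/F12 or RPMI, 10% FBS), held 24 hours at 37°C and 5% CO2, and dosed for 72 hours with final DMSO typically 0.2%. Luminescence from CellTiter-Glo 2.0, scaled between blank-well and DMSO-well means, served as viability. The single-agent IC50 was obtained from dose-response fits with a non-linear mixed effects model, each fit being a two-parameter logistic curve.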

AZD5363 = compound: C1CN(CCC1(C(=O)N[C@@H](CCO)C2=CC=C(C=C2)Cl)N)C3=NC=NC4=C3C=CN4 [AZD5363]; conditions: max 10 µM
Summary of the method: as §1

AZD1775 = compound: C=CCn1c(=O)c2cnc(Nc3ccc(N4CCN(C)CC4)cc3)nc2n1-c1cccc(C(C)(C)O)n1 [AZD1775]; conditions: max 3 µM
Summary of the method: as §1

Trametinib = compound: CC(=O)Nc1cccc(-n2c(=O)n(C3CC3)c(=O)c3c(Nc4ccc(I)cc4F)n(C)c(=O)c(C)c32)c1 [Trametinib]; conditions: max 1 µM
Summary of the method: as §1

Paclitaxel = compound: CC(=O)O[C@H]1C(=O)[C@@]2(C)[C@H]([C@H](OC(=O)c3ccccc3)[C@]3(O)C[C@H](OC(=O)[C@H](O)[C@@H](NC(=O)c4ccccc4)c4ccccc4)C(C)=C1C3(C)C)[C@]1(OC(C)=O)CO[C@@H]1C[C@@H]2O [Paclitaxel]; conditions: max 3 µM
Summary of the method: as §1

Palbociclib = compound: CC(=O)c1c(C)c2cnc(Nc3ccc(N4CCNCC4)cn3)nc2n(C2CCCC2)c1=O [Palbociclib]; conditions: max 10 µM
Summary of the method: as §1

AZD1390 = compound: CC(C)n1c(=O)n(C)c2cnc3cc(F)c(-c4ccc(OCCCN5CCCCC5)nc4)cc3c21 [AZD1390]; conditions: max 0.3 µM
Summary of the method: as §1

Venetoclax = compound: CC1(C)CCC(CN2CCN(c3ccc(C(=O)NS(=O)(=O)c4ccc(NCC5CCOCC5)c([N+](=O)[O-])c4)c(Oc4cnc5[nH]ccc5c4)c3)CC2)=C(c2ccc(Cl)cc2)C1 [Venetoclax]; conditions: max 1 µM
Summary of the method: as §1

Dasatinib = compound: CC1=C(C(=CC=C1)Cl)NC(=O)C2=CN=C(S2)NC3=CC(=NC(=N3)C)N4CCN(CC4)CCO [Dasatinib]; conditions: max 2 µM
Summary of the method: as §1

SG3199 = compound: CC1=CN2[C@@H](C1)C=NC3=CC(=C(C=C3C2=O)OC)OCCCCCOC4=C(C=C5C(=C4)N=C[C@@H]6CC(=CN6C5=O)C)OC [SG3199]; conditions: max 0.001 µM
Summary of the method: as §1

AZD2811 = compound: CCN(CCO)CCCOc1ccc2c(Nc3cc(CC(=O)Nc4cccc(F)c4)[nH]n3)ncnc2c1 [AZD2811]; conditions: max 1 µM
Summary of the method: as §1

SN-38 = compound: CCc1c2c(nc3ccc(O)cc13)-c1cc3c(c(=O)n1C2)COC(=O)[C@]3(O)CC [SN-38]; conditions: max 0.3 µM
Summary of the method: as §1

AZD0156 = compound: CN(C)CCCOc1ccc(-c2ccc3ncc4c(c3c2)n(C2CCOCC2)c(=O)n4C)cn1 [AZD0156]; conditions: max 3 µM
Summary of the method: as §1

AZD4320 = compound: CN(CC[C@H](CSC1=CC=CC=C1)NC2=C(C=C(C=C2)S(=O)(=O)NC(=O)C3=CC=C(C=C3)N4CCC(CC4)[C@H](C5=CC=CC=C5C6=CC=C(C=C6)Cl)O)S(=O)(=O)C(F)(F)F)CCO [AZD4320]; conditions: max 1 µM
Summary of the method: as §1

Alisertib = compound: COc1cc(Nc2ncc3c(n2)-c2ccc(Cl)cc2C(c2c(F)cccc2OC)=NC3)ccc1C(=O)O [Alisertib]; conditions: max 10 µM
Summary of the method: as §1

Etoposide = compound: COc1cc([C@@H]2c3cc4c(cc3[C@@H](O[C@@H]3O[C@@H]5CO[C@@H](C)O[C@H]5[C@H](O)[C@H]3O)[C@H]3COC(=O)[C@H]23)OCO4)cc(OC)c1O [Etoposide]; conditions: max 10 µM
Summary of the method: as §1

Gefitinib = compound: COc1cc2ncnc(Nc3ccc(F)c(Cl)c3)c2cc1OCCCN1CCOCC1 [Gefitinib]; conditions: max 10 µM
Summary of the method: as §1

Prexasertib = compound: COc1cccc(OCCCN)c1-c1cc(Nc2cnc(C#N)cn2)n[nH]1 [Prexasertib]; conditions: max 1 µM
Summary of the method: as §1

Doxorubicin = compound: COc1cccc2c1C(=O)c1c(O)c3c(c(O)c1C2=O)C[C@@](O)(C(=O)CO)C[C@@H]3O[C@H]1C[C@H](N)[C@H](O)[C@H](C)O1 [Doxorubicin]; conditions: max 1 µM
Summary of the method: as §1

AZD5153 = compound: COc1nnc2ccc(N3CCC(c4ccc(OCCN5CCN(C)C(=O)[C@H]5C)cc4)CC3)nn12 [AZD5153]; conditions: max 1 µM
Summary of the method: as §1

Lapatinib = compound: CS(=O)(=O)CCNCc1ccc(-c2ccc3ncnc(Nc4ccc(OCc5cccc(F)c5)c(Cl)c4)c3c2)o1 [Lapatinib]; conditions: max 10 µM
Summary of the method: as §1

AZD8186 = compound: C[C@@H](Nc1cc(F)cc(F)c1)c1cc(C(=O)N(C)C)cc2c(=O)cc(N3CCOCC3)oc12 [AZD8186]; conditions: max 10 µM
Summary of the method: as §1

Crizotinib = compound: C[C@@H](Oc1cc(-c2cnn(C3CCNCC3)c2)cnc1N)c1c(Cl)ccc(F)c1Cl [Crizotinib]; conditions: max 10 µM
Summary of the method: as §1

Savolitinib = compound: C[C@@H](c1ccc2nccn2c1)n1nnc2ncc(-c3cnn(C)c3)nc21 [Savolitinib]; conditions: max 1 µM
Summary of the method: as §1

AZD6738 = compound: C[C@@H]1COCCN1C2=NC(=NC(=C2)C3(CC3)[S@](=N)(=O)C)C4=C5C=CNC5=NC=C4 [AZD6738]; conditions: max 10 µM
Summary of the method: as §1

AZD5991 = compound: Cc1c2c(nn1C)CSCc1cc(n(C)n1)CSc1cc(c3ccccc3c1)OCCCc1c(C(=O)O)n(C)c3c-2c(Cl)ccc13 [AZD5991]; conditions: max 1 µM
Summary of the method: as §1

AZD7648 = compound: Cc1cc2ncnn2cc1Nc1ncc2c(n1)n(C1CCOCC1)c(=O)n2C [AZD7648]; conditions: max 10 µM
Summary of the method: as §1

Taselisib = compound: Cc1nc(-c2cn3c(n2)-c2ccc(-c4cnn(C(C)(C)C(N)=O)c4)cc2OCC3)n(C(C)C)n1 [Taselisib]; conditions: max 10 µM
Summary of the method: as §1

Selumetinib = compound: Cn1cnc2c(F)c(Nc3ccc(Br)cc3Cl)c(C(=O)NOCCO)cc21 [Selumetinib]; conditions: max 10 µM
Summary of the method: as §1

SRA737 = compound: N#Cc1cnc(Nc2cc(NC[C@H]3CNCCO3)c(C(F)(F)F)cn2)cn1 [SRA737]; conditions: max 10 µM
Summary of the method: as §1

MK-2206 = compound: NC1(c2ccc(-c3nc4ccn5c(=O)[nH]nc5c4cc3-c3ccccc3)cc2)CCC1 [MK-2206]; conditions: max 10 µM
Summary of the method: as §1

Gemcitabine = compound: Nc1ccn([C@@H]2O[C@H](CO)[C@@H](O)C2(F)F)c(=O)n1 [Gemcitabine]; conditions: max 0.3 µM
Summary of the method: as §1

[1] = compound: O=C(Nc1ccc2[nH]nc(-c3ccncc3)c2c1)[C@@H]1CCN(CC(=O)N2CCN(c3ccc(-c4ncccn4)cc3)CC2)C1; conditions: max 5 µM
Summary of the method: as §1

Olaparib = compound: O=C(c1cc(Cc2n[nH]c(=O)c3ccccc23)ccc1F)N1CCN(C(=O)C2CC2)CC1 [Olaparib]; conditions: max 10 µM
Summary of the method: as §1

5-Fluorouracil = compound: O=c1[nH]cc(F)c(=O)[nH]1 [5-Fluorouracil]; conditions: max 20 µM
Summary of the method: as §1

Cell Line	IC50, cell viability 72 h (Carboplatin) [µM]	IC50, cell viability 72 h (AZD5363) [µM]	IC50, cell viability 72 h (AZD1775) [nM]	IC50, cell viability 72 h (Trametinib) [nM]	IC50, cell viability 72 h (Paclitaxel) [nM]	IC50, cell viability 72 h (Palbociclib) [µM]	IC50, cell viability 72 h (AZD1390) [nM]	IC50, cell viability 72 h (Venetoclax) [nM]	IC50, cell viability 72 h (Dasatinib) [nM]	IC50, cell viability 72 h (SG3199) [nM]	IC50, cell viability 72 h (AZD2811) [nM]	IC50, cell viability 72 h (SN-38) [nM]	IC50, cell viability 72 h (AZD0156) [nM]	IC50, cell viability 72 h (AZD4320) [nM]	IC50, cell viability 72 h (Alisertib) [µM]	IC50, cell viability 72 h (Etoposide) [µM]	IC50, cell viability 72 h (Gefitinib) [µM]	IC50, cell viability 72 h (Prexasertib) [nM]	IC50, cell viability 72 h (Doxorubicin) [nM]	IC50, cell viability 72 h (AZD5153) [nM]	IC50, cell viability 72 h (Lapatinib) [µM]	IC50, cell viability 72 h (AZD8186) [µM]	IC50, cell viability 72 h (Crizotinib) [µM]	IC50, cell viability 72 h (Savolitinib) [nM]	IC50, cell viability 72 h (AZD6738) [µM]	IC50, cell viability 72 h (AZD5991) [nM]	IC50, cell viability 72 h (AZD7648) [µM]	IC50, cell viability 72 h (Taselisib) [µM]	IC50, cell viability 72 h (Selumetinib) [µM]	IC50, cell viability 72 h (SRA737) [µM]	IC50, cell viability 72 h (MK-2206) [µM]	IC50, cell viability 72 h (Gemcitabine) [nM]	IC50, cell viability 72 h [1] [µM]	IC50, cell viability 72 h (Olaparib) [µM]	IC50, cell viability 72 h (5-Fluorouracil) [µM]
L-540 (Hodgkin's Lymphoma)	> 10	> 10	299	> 1000	39.3	> 10	> 300	> 1000	> 2000	> 1	> 1000	2.77	> 3000	> 1000	3.88	0.779	> 10	8.45	157	104	> 10	> 10	6.59	> 1000	0.761	99.8	> 10	> 10	> 10	2.46	> 10	7.55	> 5	> 10	0.835
MKN28 (Gastric Carcinoma)	> 10	> 10	> 3000	> 1000	1440	> 10	> 300	> 1000	> 2000	> 1	> 1000	> 300	> 3000	> 1000	> 10	> 10	> 10	456	> 1000	> 1000	> 10	> 10	> 10	> 1000	> 10	> 1000	> 10	> 10	> 10	> 10	> 10	> 300	> 5	> 10	> 20
NCI-H1792 (Lung Adenocarcinoma)	> 10	> 10	730	83.5	5.92	> 10	> 300	> 1000	1550	> 1	> 1000	159	> 3000	> 1000	5.11	7.11	> 10	97.9	558	561	> 10	> 10	6.07	> 1000	4.81	> 1000	> 10	4.88	> 10	> 10	> 10	34.5	> 5	> 10	7.72
NCI-H2818 (Mesothelioma)	> 10	> 10	> 3000	> 1000	745	> 10	> 300	> 1000	> 2000	> 1	> 1000	> 300	> 3000	> 1000	> 10	> 10	> 10	> 1000	> 1000	> 1000	> 10	> 10	> 10	> 1000	> 10	> 1000	> 10	> 10	> 10	> 10	> 10	> 300	> 5	> 10	> 20
SR (Other Blood Carcinomas)	> 10	> 10	187	> 1000	5.75	3	> 300	722	> 2000	> 1	43.5	3.3	> 3000	677	0.0503	0.126	> 10	5.88	26.1	86.4	> 10	> 10	0.251	> 1000	1.75	352	> 10	> 10	> 10	1.4	> 10	45.3	> 5	> 10	4.32
SW837 (Colorectal Carcinoma)	> 10	> 10	2240	300	582	> 10	> 300	> 1000	> 2000	> 1	> 1000	> 300	> 3000	> 1000	> 10	> 10	> 10	186	> 1000	717	> 10	> 10	> 10	> 1000	> 10	> 1000	> 10	> 10	9.89	> 10	> 10	> 300	> 5	> 10	> 20
SW1417 (Colorectal Carcinoma)	> 10	> 10	> 3000	51.5	422	> 10	> 300	> 1000	> 2000	> 1	> 1000	182	> 3000	> 1000	> 10	> 10	> 10	567	> 1000	> 1000	> 10	> 10	> 10	> 1000	> 10	> 1000	> 10	> 10	4.87	> 10	> 10	> 300	1.35	> 10	> 20
WIL2-NS (Non-Cancerous)	> 10	2.38	231	> 1000	10.7	0.629	> 300	> 1000	1350	> 1	> 1000	4.65	> 3000	> 1000	0.927	0.375	> 10	6.04	105	44.8	> 10	> 10	> 10	> 1000	1.26	> 1000	> 10	6.95	> 10	1.73	6.09	7.8	> 5	> 10	> 20
WM-115 (Melanoma)	> 10	> 10	> 3000	182	387	> 10	> 300	> 1000	> 2000	> 1	> 1000	> 300	> 3000	> 1000	> 10	> 10	> 10	486	633	> 1000	> 10	3.41	> 10	> 1000	> 10	> 1000	> 10	7.27	> 10	> 10	> 10	> 300	> 5	> 10	> 20
